From ChEMBL document CHEMBL1201862, “PubChem BioAssay data set” (2004) come the findings set out here.

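Cultured in 96-well plates, cells were exposed to test compound for 48 hours across five concentrations. GI50: concentration for 50% inhibition of growth.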 Activity calls are given as the source filed them. Rule as the data show it: active = GI50 up to about 1.1 µM and inactive = higher. A value given as a limit tells only on which side of the number the result lay.

Holding throughout (test): growth of human tumour cells (NCI), 48 h
In assay [1] the test system is KM-20L2.
The subject of assay [2] is CCRF-CEM.
In assay [3] the test system is K562.
Assay [4] concerns ACHN.
Assay [5] concerns UACC-62.
The subject of assay [6] is OVCAR-5.
Assay [7] concerns SK-MEL-5.
The subject of assay [8] is Malme-3M.
Assay [9] relates to HT-29.
In assay [10] the test system is UACC-257.
The test system of assay [11] is NCI-H460.
For assay [12], the system named is HCC 2998.
For assay [13], the system named is SNB-75.
Assay [14] deals with OVCAR-8.
Assay [15] deals with DMS-273.
Assay [16] concerns HCT-15.
The test system of assay [17] is SNB-19.
The test system of assay [18] is SNB-78.
Assay [19] deals with MDA-MB-231.
For assay [20], the system named is DU-145.

On to `C/C(CC(=O)Nc1cccc([N+](=O)[O-])c1)=N/NC(N)=S`, for which the GI50 in assay [1], in [2], in assay [3], in assay [4], in assay [5] and in assay [6] was > 100 µM (inactive) in each case. Besides, the GI50 in [7], in assay [8], in assay [9], in [10], in assay [11] and in assay [12] was > 100 µM (inactive) each time. Further, the GI50 in [13] and in assay [14] was > 100 µM (inactive) in each case.
On to `C=CCC1=C2CCCCC2CCC1=O` (centres undefined), for which the GI50 was > 100 µM (inactive) in assay [15]; > 100 µM (inactive) in [2]; > 100 µM in [16]; > 100 µM (inactive) in [3]; > 100 µM (inactive) in [4]; > 100 µM (inactive) in [17]. For the same compound, the GI50 in assay [5], in assay [6], in assay [7], in assay [8], in assay [10] and in [11] was > 100 µM (inactive) throughout. Further, the GI50 in [18], in [13] and in [14] was > 100 µM (inactive) each time.
Consider `COc1cc2c[n+](C)c3c4ccccc4ccc3c2cc1OC.COc1cc2cnc3c4ccccc4ccc3c2cc1OC`, for which the GI50 was 2.88 µM (inactive) in assay [15]; 2.79 µM (inactive) in assay [19]; 8.81 µM (inactive) in assay [1]; 6.47 µM (inactive) in assay [2]; > 100 µM in assay [16]; 9.55 µM (inactive) in assay [3]. In addition, the GI50 in [4] was 73.1 µM (inactive); in assay [17], 3.94 µM (inactive); in assay [5], 6.68 µM (inactive); in assay [6] it was 17.3 µM (inactive); in [7], 14.9 µM (inactive); in assay [8], 3.21 µM (inactive). The GI50 is 7.59 µM (inactive) in [9]; 20 µM (inactive) in assay [10]; 11.6 µM (inactive) in assay [11]; 8.47 µM (inactive) in [12]; 3.54 µM (inactive) in assay [13]; 5.68 µM (inactive) in assay [20]. Besides, in assay [14], the GI50 was 12.1 µM (inactive).
On to `C=C(C)C1CC=C(C)C(O)([C@@]2(O)C[C@H](C(=C)C)CC=C2C)C1` (some centres undefined), for which the GI50 was 16.2 µM (inactive) in assay [15]; 20.1 µM (inactive) in [2]; > 10 µM in assay [16]; 22.2 µM (inactive) in assay [3]; 20.3 µM (inactive) in assay [4]; 32.1 µM (inactive) in assay [17]. The GI50 in assay [5] is 19.8 µM (inactive); in assay [6] it was 24.5 µM (inactive); in assay [7], 14.8 µM (inactive); in [8], 22.8 µM (inactive); in assay [9], 17.3 µM (inactive); in assay [10], 19.3 µM (inactive). The GI50 in assay [11] was 18 µM (inactive); in assay [18] it was 30.6 µM (inactive); in assay [12], 16.4 µM (inactive); in assay [13] it was 15.4 µM (inactive); in assay [14], 17.2 µM (inactive).
Turning to `O=C1c2ccccc2C(=O)c2cc3c(cc21)C[S+]([O-])C3`, the GI50 in assay [15] is > 100 µM (inactive); in [1], > 100 µM (inactive); in assay [2], > 100 µM (inactive); in assay [16] it was > 10 µM; in assay [3] it was > 100 µM (inactive); in assay [4], > 100 µM (inactive). The GI50 in assay [17], in assay [5], in [6], in assay [7], in [8] and in assay [9] was > 100 µM (inactive) in each case. In addition, the GI50 in assay [10], in assay [11], in assay [12], in [13] and in [14] was > 100 µM (inactive) throughout.
For the compound `O=C1CC(=O)N(CCc2ccccc2)S(=O)(=O)N1CCc1ccccc1`, the GI50 was 22.5 µM (inactive) in assay [15]; 17.2 µM (inactive) in assay [2]; 33.2 µM in assay [16]; 23.7 µM (inactive) in assay [3]; 35.9 µM (inactive) in [4]; 29.2 µM (inactive) in assay [17]. The GI50 in [5] was 25.9 µM (inactive); in [6], 22.7 µM (inactive); in [7], 18.7 µM (inactive); in [8], 26 µM (inactive); in [9], 23 µM (inactive); in assay [11], 27.7 µM (inactive). The GI50 in [12] is 86.9 µM (inactive); in [13] it was 23.1 µM (inactive); in assay [14], > 10 µM (inactive).
Consider `O=C(O)CN(c1ccccc1)S(=O)(=O)c1ccc([N+](=O)[O-])cc1`, for which the GI50 in assay [15] is > 100 µM (inactive); in assay [1] it was > 100 µM (inactive); in [2], > 100 µM (inactive); in [16] it was > 100 µM; in assay [3], > 100 µM (inactive); in assay [4], > 100 µM (inactive). Besides, the GI50 in [17], in assay [5], in [6], in assay [7], in assay [8] and in assay [9] was > 100 µM (inactive) in each case. Further, the GI50 in assay [10], in assay [11] and in [14] was > 100 µM (inactive) in each case.
Consider `COC1=CC(=O)c2ccc(C(C)C)cc2C1(C)C1=NC(C)(C)CO1` (centres undefined), for which the GI50 in [15] is > 100 µM (inactive); in assay [1], > 100 µM (inactive); in assay [2], > 100 µM (inactive); in [16] it was > 100 µM; in [3] it was 76 µM (inactive); in [4] it was > 100 µM (inactive). The GI50 in assay [17] is > 100 µM (inactive); in [5], > 100 µM (inactive); in assay [7] it was > 100 µM (inactive); in assay [8], > 100 µM (inactive); in [9], > 100 µM (inactive); in assay [10], 65.8 µM (inactive). In addition, the GI50 is > 100 µM (inactive) in assay [11], 80.5 µM (inactive) in [13] and > 100 µM (inactive) in assay [14].
Turning to `CCCCC(C)C(OC(=O)CC(CC(=O)O)C(=O)O)C(CC(C)CC(O)CCCCC(O)CC(O)C(C)N)OC(=O)CC(CC(=O)O)C(=O)O` (centres undefined), the GI50 in [1] is > 100 µM (inactive); in assay [2], > 100 µM (inactive); in assay [16], > 100 µM; in [3], > 100 µM (inactive); in assay [4] it was > 100 µM (inactive); in [17], > 100 µM (inactive). Further, the GI50 in [5], in [6], in assay [7], in assay [8], in assay [9] and in assay [10] was > 100 µM (inactive) each time. Besides, the GI50 is > 100 µM (inactive) in assay [11], > 100 µM (inactive) in assay [12], > 78.3 µM (inactive) in [13] and > 100 µM (inactive) in assay [14].
As to `CCOC1OC(COC(=O)C(C)(C)C)C(O)CC1n1cc(C)c(=O)[nH]c1=O` (centres undefined), the GI50 in assay [19] is > 100 µM (inactive); in assay [2], > 100 µM (inactive); in assay [16], > 100 µM; in assay [3], > 100 µM (inactive); in assay [4], > 100 µM (inactive); in assay [17] it was > 100 µM (inactive). Further, the GI50 in assay [5], in assay [6], in assay [7], in assay [8], in assay [9] and in [10] was > 100 µM (inactive) each time. In addition, the GI50 in assay [11], in [12], in assay [13], in assay [20] and in assay [14] was > 100 µM (inactive) in each case.
Regarding `CCOC(CCNCC(OCC)OCC)OCC`, the GI50 in assay [19] is > 10 µM (inactive); in [2], > 10 µM (inactive); in [16], > 10 µM; in assay [3], > 10 µM (inactive); in assay [4], > 10 µM (inactive); in assay [17], > 10 µM (inactive). The GI50 in [5], in assay [6], in [7], in assay [8], in [9] and in assay [10] was > 10 µM (inactive) in each case. Moreover, the GI50 in [11], in [12], in [13], in [20] and in assay [14] was > 10 µM (inactive) throughout.
With `CCCCc1ccc(Nc2nc(Cl)c3c(ncn3COCCOC(C)=O)n2)cc1`, the GI50 was 18.5 µM (inactive) in [19]; 28.2 µM (inactive) in assay [2]; 16.3 µM in assay [16]; 24.4 µM (inactive) in [3]; 18.5 µM (inactive) in assay [4]; 20.9 µM (inactive) in assay [17]. Moreover, the GI50 in assay [5] is 16.6 µM (inactive); in [6], 18.5 µM (inactive); in [7], 18.7 µM (inactive); in [8], 19.4 µM (inactive); in assay [9] it was 18.7 µM (inactive); in assay [10] it was 17.1 µM (inactive). Further, the GI50 in assay [11] is 18.3 µM (inactive); in assay [12], 19.9 µM (inactive); in [13] it was 2.2 µM (inactive); in [20], 16.6 µM (inactive); in [14], 18.3 µM (inactive).
